Measurements taken from the supplement of paper PMC10307832.

Compound: Cc1cc([C@@H](C)Nc2ccccc2C(=O)O)c2nc(N3CCOCC3)cc(=O)n2c1 [AZD6482] + CS(=O)(=O)N1CCN(Cc2cc3nc(-c4cccc5[nH]ncc45)nc(N4CCOCC4)c3s2)CC1 [Pictilisib] (partner 1 µM)
Assay: relative viability (nuclei count vs DMSO), 5 days (fraction); higher = more cells survive
Conditions: first compound 0.08 µM
Outline: (§1)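 Lung cancer cell lines in 1536-well plates got either a single drug or a fixed anchor-drug dose together with five library-drug doses (not always all listed) in √10 steps, by pin tool, on the day after seeding. Nuclei were counted after 5 days, and relative viability is the treated-to-vehicle ratio of nuclei counts. Values are medians of duplicate plates.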

Row | Cell Line | relative viability
1 | NCI-H1944 | 0.314
2 | NCI-H1975 | 0.249
3 | RERF-LC-KJ | 0.492
4 | ABC-1 | 0.789
5 | NCI-H358 | 0.274
6 | NCI-H650 | 0.931
7 | PC-3 [JPC-3] | 0.601

Same assay, conditions: first compound 0.253 µM

Row | Cell Line | relative viability
8 | NCI-H23 | 0.482
9 | NCI-H1651 | 0.58
10 | NCI-H1792 | 0.237
11 | NCI-H1355 | 0.43
12 | NCI-H3122 | 0.572
13 | NCI-H1437 | 0.326
14 | NCI-H1755 | 0.317
15 | HCC-15 | 0.651
16 | NCI-H1793 | 0.336
17 | PC-14 | 0.632
18 | EKVX | 0.326
19 | LC-2-ad | 0.426
20 | NCI-H1944 | 0.342
21 | NCI-H1975 | 0.275
22 | RERF-LC-KJ | 0.488
23 | ABC-1 | 0.623
24 | NCI-H358 | 0.386
25 | PC-3 [JPC-3] | 0.743

Same assay, conditions: first compound 0.8 µM

Row | Cell Line | relative viability
26 | NCI-H23 | 0.452
27 | NCI-H647 | 0.38
28 | NCI-H1651 | 0.569
29 | EPLC-272H | 0.297
30 | NCI-H1792 | 0.288
31 | NCI-H1355 | 0.425
32 | NCI-H3122 | 0.642
33 | NCI-H1437 | 0.473
34 | NCI-H1755 | 0.372
35 | HCC-15 | 0.766
36 | NCI-H1793 | 0.293
37 | PC-14 | 0.591
38 | EKVX | 0.441
39 | LC-2-ad | 0.504
40 | NCI-H1944 | 0.366
41 | NCI-H1975 | 0.307
42 | RERF-LC-KJ | 0.502
43 | ABC-1 | 0.773
44 | NCI-H358 | 0.276
45 | NCI-H650 | 0.908
46 | PC-3 [JPC-3] | 0.739

Same assay, conditions: first compound 2.53 µM

Row | Cell Line | relative viability
47 | NCI-H23 | 0.356
48 | NCI-H647 | 0.249
49 | NCI-H1651 | 0.432
50 | EPLC-272H | 0.287
51 | NCI-H1792 | 0.191
52 | NCI-H1355 | 0.244
53 | NCI-H3122 | 0.407
54 | NCI-H1437 | 0.319
55 | NCI-H1755 | 0.213
56 | HCC-15 | 0.641
57 | PC-14 | 0.376
58 | EKVX | 0.235
59 | LC-2-ad | 0.236
60 | NCI-H1944 | 0.246
61 | NCI-H1975 | 0.274
62 | RERF-LC-KJ | 0.535
63 | ABC-1 | 0.686
64 | NCI-H358 | 0.202
65 | NCI-H650 | 0.541
66 | PC-3 [JPC-3] | 0.652

Same assay, conditions: first compound 8 µM

Row | Cell Line | relative viability
67 | NCI-H23 | 0.494
68 | NCI-H647 | 0.408
69 | NCI-H1651 | 0.508
70 | EPLC-272H | 0.333
71 | NCI-H1792 | 0.213
72 | NCI-H1355 | 0.453
73 | NCI-H3122 | 0.636
74 | NCI-H1437 | 0.392
75 | NCI-H1755 | 0.43
76 | HCC-15 | 0.849
77 | NCI-H1793 | 0.259
78 | PC-14 | 0.771
79 | EKVX | 0.467
80 | LC-2-ad | 0.567
81 | NCI-H1944 | 0.33
82 | NCI-H1975 | 0.258
83 | RERF-LC-KJ | 0.7
84 | ABC-1 | 0.736
85 | NCI-H358 | 0.358
86 | NCI-H650 | 0.813
87 | PC-3 [JPC-3] | 0.681

Compound: Cc1cc([C@@H](C)Nc2ccccc2C(=O)O)c2nc(N3CCOCC3)cc(=O)n2c1 [AZD6482] + NC(=O)Nc1cc(-c2cccc(F)c2)sc1C(=O)N[C@H]1CCCNC1 [AZD7762] (partner 0.2 µM)
Assay: as above
Conditions: first compound 0.08 µM
Outline: as §1

Row | Cell Line | relative viability
88 | NCI-H23 | 0.317
89 | NCI-H647 | 0.365
90 | NCI-H1651 | 0.457
91 | EPLC-272H | 0.531
92 | NCI-H1792 | 0.516
93 | NCI-H1355 | 0.642
94 | NCI-H3122 | 0.956
95 | NCI-H1437 | 1.16
96 | NCI-H1755 | 0.463
97 | HCC-15 | 1.24
98 | NCI-H1793 | 0.377
99 | PC-14 | 0.417
